# Measured values: patent US20200062696A1, “COMPOSITIONS AND METHODS FOR INHIBITING RETICULON 4” (THE REGENTS OF THE UNIVERSITY OF CALIFORNIA, priority 2017, published 2020)
# How the values were obtained:
# [1] = test system: SW620 cells expressing GFP-tagged Sec61β; assay: ER morphology by fluorescence microscopy in SW620 cells expressing GFP-Sec61β; format: cell-based; conditions: DKM 3-30 50 μM
# Protocol: FIG. 8. ER Morphology in SW620 Colorectal Cancer Cells. SW620 cells expressing GFP-tagged Sec61β were treated with DKM 3-30 (50 μM) for the indicated times and the ER (light gray/white) and nuclear (dark gray) morphology visualized by fluorescence microscopy.
# (§1) Fluorescence microscopy. SW620 and U2OS cells were transiently transfected with a plasmid encoding GFP-tagged Sec61β using fuGENE6 (Roche) according to the manufacturer's instructions. Transfected cells plated on poly-L-lysine treated coverslips were treated, washed in PBS, and fixed by incubation in 4% paraformaldehyde in PBS for 10 min. Fixed cells were washed extensively in PBS and nuclei stained by addition of 4′,6-diamidino-2-phenylindole (DAPI) (Thermo Fisher Scientific) for 10 min. Coverslips were mounted using Fluoromount-G (SouthernBiotech) and visualized using a DeltaVision Elite microscope outfitted with a 60× oil immersion objective. Acquired stacks of images of fixed cells were deconvolved and analyzed using SoftWoRx and ImageJ. For time-lapse imaging of live cells, transfected cells were plated on poly-L-lysine treated glass-bottom 4-well imaging chambers (Lab-Tek II; Thermo Fisher Scientific). Imaging was performed using a DeltaVision Elite microscope encased in a chamber that was maintained at 37° C. and was continuously perfused with humidified 5% CO2. Acquired images were analyzed using SoftWoRx and ImageJ.
# [2] = test system: U2OS cells expressing GFP-tagged Sec61β; assay: Time-lapse imaging of mitosis and nuclear envelope in U2OS cells expressing GFP-Sec61β; format: cell-based; conditions: DKM 3-30 50 μM
# Protocol: FIGS. 4A-4C. DKM 3-30 disrupts nuclear envelope morphology during mitosis. (FIGS. 4A-4C) U2OS cells expressing GFP-tagged Sec61β were treated with vehicle (DMSO) or DKM 3-30 (50 μM) and the ER morphology of mitotic cells visualized by time-lapse fluorescence microscopy. Time (min) is indicated on each panel. Panels (FIGS. 4A, 4B) provide examples of mitotic cells. Enlarged images following mitosis show the nuclear envelope. White arrowheads indicate a GFP-Sec61β structure bisecting the nucleus of a cell incubated with DKM 3-30. […] Bottom panels indicate boxed region.
# as §1, with “For time-lapse imaging of live cells, transfected cells were plated on poly-L-lysine treated glass-bottom 4-well imaging chambers (Lab-Tek II; Thermo Fisher Scientific). Imaging was performed using a DeltaVision Elite microscope encased in a chamber that was maintained at 37° C. and was continuously perfused with humidified 5% CO2.” left out
# [3] = test system: MEF cells expressing human RTN4-GFP; assay: Apoptosis (propidium iodine and Annexin-V, flow cytometry) in MEF cells expressing human RTN4-GFP; format: cell-based, mouse; conditions: DKM 3-30 50 μM, 0, 8 or 16 h
# Protocol: FIG. 12. Effect of DKM 3-30 in Mouse Embryonic Fibroblast (MEF) cells expressing human RTN4. C1101 in human RTN4 is instead a serine in mouse RTN4. […] GFP or RTN4-GFP expressing MEF cells were treated with DKM 3-30 (50 μM) for 0, 8, or 16 h and apoptotic cells (propidium iodine positive and Annexin-V positive) were assessed by flow cytometry. Data are presented as mean±sem. Significance is expressed as *p<0.05 compared to 0 h time-point.
# pure human RTN4 protein = target: T1, pure human RTN4 protein (Homo sapiens, UniProt Q9NQC3); assay: Gel-based ABPP competition against IAyne labeling of pure human RTN4 protein; format: binding; conditions: pure human RTN4 protein, gel-based ABPP
# T1 construct: purchased Fisher Scientific
# T1 sequence (Q9NQC3 1-1192): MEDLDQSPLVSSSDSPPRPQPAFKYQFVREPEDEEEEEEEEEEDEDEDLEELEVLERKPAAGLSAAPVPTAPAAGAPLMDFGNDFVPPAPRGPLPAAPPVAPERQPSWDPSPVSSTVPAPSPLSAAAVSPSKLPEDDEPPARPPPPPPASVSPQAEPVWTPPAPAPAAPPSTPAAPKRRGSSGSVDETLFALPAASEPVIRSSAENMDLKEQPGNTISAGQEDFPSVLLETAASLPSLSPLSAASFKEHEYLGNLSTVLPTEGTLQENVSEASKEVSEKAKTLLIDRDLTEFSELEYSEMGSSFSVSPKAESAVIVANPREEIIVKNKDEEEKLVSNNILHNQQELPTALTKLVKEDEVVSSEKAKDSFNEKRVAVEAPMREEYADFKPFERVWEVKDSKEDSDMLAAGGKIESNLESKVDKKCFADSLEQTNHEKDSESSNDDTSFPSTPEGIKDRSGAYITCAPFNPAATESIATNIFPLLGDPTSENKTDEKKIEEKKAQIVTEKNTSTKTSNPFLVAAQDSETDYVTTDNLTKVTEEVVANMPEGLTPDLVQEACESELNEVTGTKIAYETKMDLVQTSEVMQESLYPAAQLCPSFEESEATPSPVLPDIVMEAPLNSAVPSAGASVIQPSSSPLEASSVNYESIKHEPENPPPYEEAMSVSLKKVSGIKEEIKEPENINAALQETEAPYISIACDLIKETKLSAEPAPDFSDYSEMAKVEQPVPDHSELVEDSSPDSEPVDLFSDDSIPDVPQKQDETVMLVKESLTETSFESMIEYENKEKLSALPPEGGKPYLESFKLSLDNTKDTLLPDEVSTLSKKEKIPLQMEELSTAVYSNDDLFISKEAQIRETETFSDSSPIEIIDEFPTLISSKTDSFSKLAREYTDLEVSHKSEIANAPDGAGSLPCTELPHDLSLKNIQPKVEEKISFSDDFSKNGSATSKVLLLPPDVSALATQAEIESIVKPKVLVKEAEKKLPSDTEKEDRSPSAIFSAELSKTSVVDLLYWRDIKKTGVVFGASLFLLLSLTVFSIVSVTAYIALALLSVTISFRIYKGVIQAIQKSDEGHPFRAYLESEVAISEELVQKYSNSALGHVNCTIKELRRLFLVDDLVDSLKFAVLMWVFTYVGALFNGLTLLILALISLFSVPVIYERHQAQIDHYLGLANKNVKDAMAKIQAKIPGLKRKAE
# Protocol: FIGS. 11A-11C. DKM 3-30 and analogs. (FIG. 11A) Structures of DKM 3-30 and analogs. (FIG. 11B) Gel-based ABPP analysis showing competition side-by-side competition studies of DKM 3-30, YP 1-46, and AMR 1-125 against IA-rhodamine labelling of pure human RTN4. Shown are the 50% inhibitory concentration (IC50) values for each compound. (FIG. 11C) Serum-free cell survival of U2OS (48 h) or SW620 (24 h) cells treated with DMSO vehicle or each compound (50 μM). Data in (C) are presented as mean±sem. Significance is expressed as *p<0.001 compared to vehicle-treated controls.
# Gel-Based ABPP. Gel-based ABPP methods were performed as previously described^24. Recombinant RTN4 (0.06 μg) protein (RTN4-Fisher Scientific) were pre-treated with DMSO or DKM 3-30, respectively, for 1 h at 37° C. in an incubation volume of 50 μL PBS, and were subsequently treated with IAyne (10 μM final concentration) for 30 min at 37° C. CuAAC was performed to append rhodamine-azide onto IAyne probe-labeled proteins. The samples were separated by SDS/PAGE and scanned using a ChemiDoc MP (Bio-Rad Laboratories, Inc). Inhibition of target labeling was assessed by densitometry using ImageStudio Light software.
compound,measurement,setting,value
"C=CC(=O)Nc1ccc(Oc2ccc(Cl)cc2)cc1 [DKM 3-30, N-(4-(4-chlorophenoxy)phenyl)acrylamide]",ER morphology in SW620 cells,[1],suggest alterations in the ER morphology
same,nuclear envelope morphology following mitosis,[2],aberrant nuclei that were bisected by GFP-Sec61β positive structures
same,duration of mitosis,[2]; control cells ~50-60 min,3 to 4 h
same,apoptosis in MEF cells expressing human RTN4-GFP,[3],induces apoptosis
same,displacement of IAyne labelling of RTN4,pure human RTN4 protein,validated this hit
